Experimental data from a melting point compilation (Tetko et al.; mined from patent text by program, amines drawn as free bases though some values may be those of a salt).

Point of comparison: `O=C(O)COc1ccc(-c2c(Br)ccc3sc4ccccc4c23)cc1`, melting point 210 °C. Against it:
- CC(C)Oc1nccc(-c2c(-c3ccc(F)cc3)ncn2C2CCNCC2)n1 — lower, 121 to 122 °C
- CCOC(=O)C1=C(COCCCN(C)C)NC(C)=C(C(=O)OC)C1c1ccccc1Cl (stereo unspecified) — lower, 77 to 78 °C
- CC(=O)N1CCC(c2nn(-c3ccccc3)c3cc(Cl)ccc23)CC1 — lower, 130 to 132 °C
- CCOC(=O)c1cnc2n(c1=O)C(C)CCC2=NNc1ccccc1 (stereo unspecified) — lower, 138 to 139 °C
- CCOC(=O)c1ccc(OCC(=O)c2ccc3c(c2)C(C)(C)CCC3(C)C)cc1 — lower, 105 to 107 °C
- O=C(SSCCSSC(=O)N1CCOCC1)N1CCOCC1 — lower, 178 to 179 °C
- O=C(Nc1ccc(-n2nc(C3CC3)cc2C2CC2)cc1)c1ccc2nccnc2c1 — lower, 162 to 167 °C
- CC(Cl)=CCOc1ccc(C(=O)O)nc1 — lower, 96 to 98 °C
- CCOC(=O)c1ccc2[nH]cc(CCCI)c2c1 — lower, 81 °C
- CN1CCN(c2ncnc3c(NC(=O)c4c(Cl)cccc4Cl)cccc23)C1=O — higher, > 250 °C
- N#Cc1cc(N)nc(SCc2ccc3ccccc3c2)n1 — lower, 154 to 155 °C
- CCCCOc1ccc(S(=O)(=O)C2(C(=O)NO)CCN(CCOc3ccccc3)CC2)cc1 — lower, 112 °C
- COc1ccc(-c2nc(C(=O)Cl)c(C)o2)cc1 — lower, 89 °C
- CC(C)N1C(CO)=Cc2ccsc2S1(=O)=O — lower, 67 to 69 °C
- Cn1cc(C(=O)NCc2ccc(Cl)cc2)c(=O)c2cc(CN3CCOCC3)cc(C#CCN3CCC(O)CC3)c21 — lower, 180 to 183 °C
- CC(=O)SCC(Cc1ccccc1)C(=O)Nc1ccccc1C(=O)O (stereo unspecified) — lower, 121 to 122 °C
- Nc1ccc(C(=O)N2CCCC(=O)c3sccc32)cc1 — higher, 216 to 218 °C
- C#CCN(C(=O)CO)c1c(C)nc(N(C)C)nc1C — lower, 128 to 130 °C
- CCCCc1nc2c(N)nc3ccccc3c2n1CCCCSC — lower, 127 to 130 °C
- CN(C)CCNc1ncc(-c2ccccc2)c(C(=O)N(C)Cc2cc(C(F)(F)F)cc(C(F)(F)F)c2)n1 — lower, 108 to 110 °C
- Cc1cc(C=O)ccc1C(=O)Nc1ncc(Cl)cn1 — lower, 169 to 172 °C
- COc1cc(-c2nc(-c3ccc(N(C)C)cc3)c(C)o2)ccc1O — lower, 170 to 173 °C
- OCCCCNC1CCCCC1 — lower, 48 to 50 °C
- CC(C)c1ccc(S(=O)(=O)n2c(CCCC(=O)O)cc3cc(Cl)ccc32)cc1 — lower, 148 °C
- Cc1cc(C(=O)NCO)ncc1C(c1c(F)ccc(F)c1F)S(=O)(=O)c1ccc(OC(F)(F)F)cc1 (stereo unspecified) — lower, 140 to 141 °C
- O=C(c1cccc2nc3n(c12)CCCN3c1ccc(Cl)cc1Cl)C1CC1 — lower, 189 to 190 °C
- CC[C@H](C)[C@H](NC(=O)[C@H](C)N(C(C)=O)C1CCCCC1)C(=O)N[C@@H](Cc1ccc2ccccc2c1)[C@@H](O)[C@@H](O)CC(C)C — lower, 192 to 194 °C
- COC(=O)C=Cc1cc(Cl)ccc1C(=O)OC — lower, 87 to 89 °C
- CCN1C(=O)C(C)(C)C(=O)N(C)c2cc(CN(CCn3cc(C)c4oc(C)cc4c3=O)C(C)c3cccnc3C)ccc21 (stereo unspecified) — lower, 169 to 170 °C
- CC1(C)CC(=O)Nc2ccc(-c3cccc(C#N)c3)cc21 — lower, 190 to 192 °C
- COc1ccc(C=CC2=NNC(C)Cc3cc4c(cc32)OCO4)cc1OC (stereo unspecified) — lower, 166 to 168 °C
- O=C1C2C3C=CC(C4CC34)C2C(=O)N1c1ccc([N+](=O)[O-])cc1 (stereo unspecified) — not separable, 210 to 212 °C
- O=C(NCC1(O)CCCCCC1)c1c(Cl)ccc2nc(N3CC[C@H](NCCO)C3)ccc12 — lower, 138 to 140 °C
- O=C(NCc1ccsc1)N(O)CCO — lower, 114 to 115 °C
- CCOC(=O)N[C@@H]1CC=C[C@@H]2CNC[C@H]21 (racemic) — lower, 120 to 122 °C
- CCN1CCN(Cc2ccc(-c3ccc4c(Nc5cc(OC)c(Cl)cc5Cl)c(C#N)cnc4c3)o2)CC1 — lower, 157 to 160 °C
- C=CCN1C(=O)CCc2cc(Sc3cccc([C@@]4(O)CCO[C@@H](C)C4)c3)ccc21 — lower, 107 to 109 °C
- C=CC(O)C1=C(C)C(=NO)CCC1(C)C (stereo unspecified) — lower, 138 to 142 °C
- COC(=O)C1=C(C)NC(C)=C(c2nc(CN(C)Cc3ccccc3)no2)C1c1cccc([N+](=O)[O-])c1 (stereo unspecified) — lower, 127 to 128 °C
- COC(=O)c1ccccc1NN=Cc1ccccc1 — lower, 66.5 to 67.5 °C
- COC(=O)[C@@H](Cc1ccccc1)NC(=O)OCc1cc2cc(-c3ccccc3)ccc2[nH]1 — lower, 142 to 143 °C
- O=c1cc(OCc2cccc(Cl)c2)ccn1Cc1ccccc1 — lower, 95.5 to 95.7 °C
- CC(C)(C)NC(=O)c1ccncc1 — lower, 115 to 117 °C
- COc1cc(CBr)c(OC)cc1Cl — lower, 85 to 88 °C
- CNCC(O)COc1cc(-c2ccc(OC)cc2)nc2cc(C)ccc12 (racemic) — lower, 140 to 142 °C
- CCCc1c(C(=O)OCC)[nH]c(CC)c1C — lower, 73 to 74 °C
- CCOc1cc(CCl)ccc1OCc1nc(-c2ccccc2)oc1C — lower, 138 to 139 °C
- CSc1ccc(-c2n[nH]c(=O)cc2-c2ccc(F)cc2)cc1 — lower, 197 to 198 °C
- CCCCC(Oc1ccccc1)C(=O)OC1CC(O)C=C2C=CC(C)C(CCC3CC(O)CC(=O)O3)C21 (mixture of isomers) — lower, 139 to 141 °C
- N#Cc1c[nH]c2c(C(=O)O)cccc12 — higher, 318 °C
